From PMC10590383, “Repurposing conformational changes in ANL superfamily enzymes to rapidly generate biosensors for organic and amino acids” (Nature Communications, 2023)

What was measured:
[1] = target: T1, GECFINDER-Phe3.1 (Aneurinibacillus migulanus, UniProt P0C061, F234I); experiment: Fluorescence dose-response of purified affinity-lowered […]-Phe3 mutants with phenylalanine, 100 mM Tris pH 7.5, room temperature, 1 mM ATP, 2.5 mM MgCl2.; assay type: biochemical
T1 construct: gene grsA
From the text: (§1) Generally, industrial amino acid-producing strains produce phenylalanine at the grams per liter level, which greatly exceeds the dynamic range of […]-Phe3. Thus, we had to re-engineer the affinity of […]-Phe3 without affecting its ligand specificity, for phenylalanine to enable the screening of industrial phenylalanine-producing strains First, we performed virtual alanine scanning on the amino acid residues near the substrate pocket of […]-Phe3 using Discovery Studio 2019. […] Subsequently, we performed virtual saturation mutations on the F234 site (Supplementary Fig. 8b) and selected F234I, which has a medium mutation energy value ranking, for experimental verification. […] To further reduce the affinity of the F234I mutant ([…]-Phe3.1) for phenylalanine, a site-saturation library of A301 based on […]-Phe3.1 was created and screened. […] The substrate specificity and thermal stability of […]-Phe3.2 were evaluated.
(§2) Fig. 5 […] applies for FADS sorting. a Dose–response curves of purified […]-Phe3, 3.1 and 3.2 with increasing concentrations of phenylalanine. b Phenylalanine biosynthesis pathway in C. glutamicum. Dotted and dashed lines represented feedback inhibition and repression, respectively. Two target genes were highlighted in red. […] RBS strength was determined using a GFP reporter system. Scale bar represented GFP fluorescence normalized with OD600 nm. […]

[2] = target: T2, GECFINDER-Phe3.2 (Aneurinibacillus migulanus, UniProt P0C061, A301E/F234I); experiment: as above; assay type: biochemical
T2 construct: gene grsA
T2 sequence (P0C061 1-617 F234I/A301E): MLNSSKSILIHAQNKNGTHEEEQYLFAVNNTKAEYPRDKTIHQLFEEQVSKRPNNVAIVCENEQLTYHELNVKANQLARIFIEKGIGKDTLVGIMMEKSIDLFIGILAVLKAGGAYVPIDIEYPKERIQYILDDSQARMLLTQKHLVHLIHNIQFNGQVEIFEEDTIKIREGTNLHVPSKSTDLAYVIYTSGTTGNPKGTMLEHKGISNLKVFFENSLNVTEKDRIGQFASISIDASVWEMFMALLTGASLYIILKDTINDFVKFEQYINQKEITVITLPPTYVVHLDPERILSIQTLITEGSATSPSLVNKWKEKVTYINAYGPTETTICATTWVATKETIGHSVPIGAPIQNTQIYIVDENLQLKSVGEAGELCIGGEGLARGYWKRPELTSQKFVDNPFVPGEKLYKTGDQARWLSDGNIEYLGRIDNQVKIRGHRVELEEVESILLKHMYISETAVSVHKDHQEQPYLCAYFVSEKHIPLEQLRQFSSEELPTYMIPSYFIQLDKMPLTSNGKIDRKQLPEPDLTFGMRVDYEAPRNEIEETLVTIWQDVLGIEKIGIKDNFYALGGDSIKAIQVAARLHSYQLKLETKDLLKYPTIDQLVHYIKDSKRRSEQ
From the text: as §1, §2

T1 sequence (P0C061 1-617 F234I): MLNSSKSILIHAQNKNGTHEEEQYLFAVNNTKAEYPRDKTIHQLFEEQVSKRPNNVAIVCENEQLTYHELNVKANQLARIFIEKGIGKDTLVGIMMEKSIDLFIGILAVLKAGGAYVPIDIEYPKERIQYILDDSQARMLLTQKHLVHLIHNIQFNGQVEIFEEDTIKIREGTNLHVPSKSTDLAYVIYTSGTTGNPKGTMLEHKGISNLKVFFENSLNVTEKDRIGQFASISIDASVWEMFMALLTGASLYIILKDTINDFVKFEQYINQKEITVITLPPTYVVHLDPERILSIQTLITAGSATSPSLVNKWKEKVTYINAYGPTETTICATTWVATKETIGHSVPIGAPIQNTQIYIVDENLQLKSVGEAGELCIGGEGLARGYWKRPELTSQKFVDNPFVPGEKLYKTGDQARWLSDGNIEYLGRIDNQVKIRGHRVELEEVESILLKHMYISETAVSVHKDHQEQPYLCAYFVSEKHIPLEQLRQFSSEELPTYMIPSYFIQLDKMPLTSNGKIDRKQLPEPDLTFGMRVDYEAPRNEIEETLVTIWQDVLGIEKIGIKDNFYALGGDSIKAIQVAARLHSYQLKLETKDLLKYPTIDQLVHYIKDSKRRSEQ

## N[C@@H](Cc1ccccc1)C(=O)O [Phe, phenylalanine]
[1]
  EC50: 7.51 µM
[2]
  EC50: 67.6 µM
